# According to patent publication US6551964B1, “Use of citric acid derivatives as pesticidal adjuvants” (Bayer Cropscience S.A., priority 1998, dated 2003):
# Where a name gives a salt, the structure may show the parent alone.
# Tested on: test species shown in Table C (common weeds)
# Experiment: Herbicidal efficacy, glasshouse, all test species of Table C
# Type: in vivo
# Conditions: adjuvant alone, experiments 26d to 29d
row,Structure (SMILES),herbicidal effects in the absence of any active ingredient
1,CCCCOC(=O)CC(CC(=O)OCCCC)(OC(C)=O)C(=O)OCCCC [O-acetyl tri-n-butyl citrate],no herbicidal effects
2,CCCCOC(=O)CC(O)(CC(=O)OCCCC)C(=O)OCCCC [tri-n-butyl citrate],no herbicidal effects
